Assay: Pharmacokinetics, RRx-001-GSH in plasma as surrogate for drug exposure
Assay type: in vivo
Description: RRx-001 reacted nonenzymatically and covalently with reduced glutathione (GSH), and with the β93Cys residue of hemoglobin, forming RRx-001-GSH and RRx-001-hemoglobin metabolites, respectively. Given the rapid conversion of the RRx-001 parent molecule to GSH and hemoglobin conjugates, RRx-001-GSH, being the predominant measurable metabolite in the plasma, was chosen as a surrogate for drug exposure. Terminal half-life of RRx-001-GSH was calculated as approximately 30 minutes.

Structure (SMILES): NC(CCC(=O)NC(CSCC(=O)N1CC([N+](=O)[O-])([N+](=O)[O-])C1)C(=O)NCC(=O)O)C(=O)O (centres unmarked) [RRx-001-GSH]
- area under the plasma concentration-time curve and maximum plasma concentration, dose proportionality (doses up to 55 mg/m^2 in phase 1): mostly dosed proportional
- Terminal half-life of RRx-001-GSH (plasma): approximately 30 minutes

Source: patent publication US20260240810A1, “COMPOSITIONS AND METHODS FOR REDUCING ADVERSE SIDE EFFECTS IN CANCER TREATMENT” (priority 2022, published 2026)
